# Measured values from PubChem BioAssay (NCI).
# Where “and” joins values, the source holds several entries; their conditions need not be identical. Equal entries are not always repeated.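 Protocol summary: plate cells (96-well), add compound at 5 concentrations, incubate 48 h, interpolate endpoints linearly. Abbreviation: GI50, concentration required for 50% inhibition of growth. TGI: concentration producing complete growth inhibition.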
# Experiments:
# Assay in all cases: NCI tumour cell line growth inhibition, 48 h
# COLO 205 colon = test system: COLO 205 colon
# EKVX NSCLC = test system: EKVX NSCLC
# HCC-2998 colon = test system: HCC-2998 colon
# HCT-116 colon = test system: HCT-116 colon
# HL-60(TB) leukemia = test system: HL-60(TB) leukemia
# HS 578T breast = test system: HS 578T breast
# IGROV1 ovarian = test system: IGROV1 ovarian
# NCI-H23 lung = test system: NCI-H23 lung
# SF-539 CNS = test system: SF-539 CNS
# U251 CNS = test system: U251 CNS
SMILES,GI50 (COLO 205 colon),TGI (COLO 205 colon),GI50 (EKVX NSCLC),TGI (EKVX NSCLC),GI50 (HCC-2998 colon),TGI (HCC-2998 colon),GI50 (HCT-116 colon),TGI (HCT-116 colon),GI50 (HL-60(TB) leukemia),TGI (HL-60(TB) leukemia),GI50 (HS 578T breast),TGI (HS 578T breast),GI50 (IGROV1 ovarian),TGI (IGROV1 ovarian),GI50 (NCI-H23 lung),TGI (NCI-H23 lung),GI50 (SF-539 CNS),TGI (SF-539 CNS),GI50 (U251 CNS),TGI (U251 CNS)
Cc1cc(C)nc(NS(=O)(=O)c2ccc(Nc3nc4nc(NCc5ccccc5)nc(-c5ccc(O)cc5)c4c(=O)[nH]3)cc2)n1,81.8 µM,> 100 µM,35.1 µM,> 100 µM,> 100 µM,> 100 µM,23600 nM,> 100 µM,8410 nM,36.2 µM,14600 nM,88.6 µM,663 nM,7.52 µM,79700 nM,> 100 µM,> 100000 nM,> 100 µM,36700 nM,> 100 µM
CC/C=C\C[C@H](O)C/C=C1/C(=O)C=C[C@@H]1C/C=C\CCCC(=O)OCCS(=O)(=O)c1ccccc1,2.85 µM,6.89 µM,12.2 µM,30.5 µM,1.99 µM,3.64 µM,2350 nM,5.06 µM,2840 nM,12.3 µM,23900 nM,> 100 µM,6260 nM,23.3 µM,2820 nM,10.6 µM,4680 nM,16.9 µM,3350 nM,12.5 µM
O=S1(=O)OCc2ccccc21,–,> 100 µM,–,> 100 µM,–,> 100 µM,–,> 100 µM,–,> 100 µM,–,> 100 µM,–,> 100 µM,–,> 100 µM,–,> 100 µM,–,> 100 µM
OCCNC(=S)Nc1ccc(-c2nc(N3C[C@H]4CC[C@@H](C3)O4)c3cccn3n2)cc1,0.0365 µM,1.69 µM,0.0629 µM,6.59 µM,0.0779 µM,18.6 µM,357 nM,21.7 µM,1220 nM,> 32.5 µM,22.1 nM,0.248 µM,16.5 nM,0.15 µM,79.8 nM,16.7 µM,108 nM,0.767 µM,114 nM,11.6 µM
CC(C)C[C@H](NC(=O)[C@H](Cc1ccccc1)NC(=O)c1cnccn1)B(O)O,0.00284 µM,1.31 µM and 0.217 µM,< 0.0175 µM and 0.00419 µM,2.06 µM and 0.417 µM and 2.33 µM,0.000597 µM,–,1.08 nM,< 0.0161 µM and 0.00328 µM,2.96 nM,–,< 10 nM and 1.92 nM,–,13 nM and 3.85 nM,0.137 µM and 0.102 µM and 0.15 µM,1.75 nM,0.183 µM and 0.0197 µM,1.19 nM,< 0.01 µM and 0.00271 µM,2.56 nM,–
COc1ccc(/C=C(/C(=O)N2CCN(c3ccc(C)cc3)CC2)c2cc(OC)c(OC)c(OC)c2)cc1N,0.339 µM,1.47 µM,0.628 µM,> 100 µM,0.376 µM,> 100 µM,254 nM,> 32.9 µM,255 nM,0.679 µM,291 nM,> 100 µM,304 nM,> 100 µM,438 nM,> 100 µM,176 nM,0.717 µM,397 nM,> 100 µM
COc1ccc2c(c1)[n+]([O-])c(/C(C)=N/NC(N)=S)c(C)[n+]2[O-],–,> 100 µM,–,> 100 µM,–,> 66.7 µM,–,> 93.2 µM,–,> 100 µM,–,> 100 µM,–,> 100 µM,–,> 100 µM,–,97.9 µM,–,> 100 µM
O=c1ncc(I)c[nH]1,> 100 µM,> 100 µM,> 100 µM,> 100 µM,> 100 µM,> 100 µM,> 100000 nM,> 100 µM,> 100000 nM,> 100 µM,> 100000 nM,> 100 µM,> 100000 nM,> 100 µM,> 100000 nM,> 100 µM,> 100000 nM,> 100 µM,> 100000 nM,> 100 µM
CCCCCCCC(=O)SCC/C=C/[C@@H]1CC(=O)NCc2cccc(n2)C2=N[C@@](C)(CS2)C(=O)N[C@@H](C(C)C)C(=O)O1,0.0857 µM,0.337 µM,0.0869 µM,> 33.3 µM,0.0528 µM,0.324 µM,14.8 nM,0.219 µM,126 nM,> 33.3 µM,20.9 nM,> 10.1 µM,26.3 nM,0.525 µM,85.8 nM,> 33.3 µM,56.3 nM,> 33.3 µM,80.2 nM,0.782 µM
CCC1CCC2C3CC=C4CC(OC(C)=O)C(N)CC4(C)C3CCC12C (stereo unspecified),–,10 µM,–,13.8 µM,–,3.06 µM,–,6.14 µM,–,4.48 µM,–,5.1 µM,–,18.2 µM,–,13.6 µM,–,3.5 µM,–,3.68 µM
CS(=O)(=O)OCCCCOS(C)(=O)=O,> 1000 µM,250 µM and > 1000 µM,> 1000 µM,> 1000 µM,> 1000 µM,201 µM and > 1000 µM,689000 nM,250 µM and > 1000 µM,212000 nM,224 µM and 858 µM,> 555000 nM,> 1000 µM,981000 nM,> 1000 µM,685000 nM,249 µM and > 1000 µM,437000 nM,250 µM and > 1000 µM,469000 nM,238 µM and > 1000 µM
